Test results published in patent US20030212074A1, “Phosphate transport inhibitors” (priority 2000, published 2003).

Tested on: Sodium-dependent phosphate transport
Assay: Phosphate uptake assay in human proximal tubule cells (32P-labelled inorganic phosphate uptake)
Type: cell-based
Conditions: whole cell assay, 32P uptake
Procedure: Sodium-dependent phosphate transport inhibition is determined by the ability of the test compound to inhibit the uptake of radio-labeled inorganic phosphate by proximal tubule cells. Appropriate cells from human, rabbit, or rat may be used.
Cell Preparation and Phosphate Uptake Assay.
Rabbit proximal tubule cells were isolated and cultured according to the procedure of Sakhrani, L. M. et al., Am. J. Physiol. 246:F757-F764, (1984) whose disclosure is incorporated herein by reference in its entirety. Human proximal tubule cells were purchased from Clonetics (San Diego, Calif.) and grown according to the suppliers' instructions. On the day of the experiment, cells were harvested from culture plates with 0.5 mM EDTA in phosphate buffered saline. The cells were washed twice in uptake buffer (see below) and equilibrated at 37 C in the same buffer for 30 minutes. Aliquots of cells (100 ul, 0.5 to 1 million cells) were distributed into glass test tubes. Fifty ul of drug solution or buffer were added followed by 50 ul of uptake buffer containing 100 uM [^32P]-K2HPO4 (0.5 to 1 uCi/tube).After varying periods of time (usually 4 minutes) at 37 C, uptakes were stopped with 4 ml of cold stop solution (see below) and the cells were washed 3 times in this solution by centrifugation. The pelleted cells were dissolved in 0.5 ml 1 N NaOH and ^32P was counted in a liquid scintillation counter. Phosphate uptake is expressed as pmol phosphate/mg cell protein.
In the above noted whole cell assay system for rabbit and human proximal tubule cells the cells are harvested by filtration and ^32P uptake is measured. It is also possible to use ^33P rather than ^32P.

SMILES	IC50 [µM]
O=C(Nc1ccc(Br)cc1)c1cc(Br)ccc1NS(=O)(=O)c1ccccc1F [5-bromo-N-(4-bromophenyl)-2-(2-fluorophenylsulfonamido)benzamide]	15
O=C(Nc1ccc(Br)cc1)c1cc(Br)ccc1NS(=O)(=O)CCCCl [5-bromo-N-(4-bromophenyl)-2-(3-chloropropylsulfonamido)benzamide]	14
O=C(Nc1ccc(Br)cc1)c1cc(Br)ccc1NS(=O)(=O)c1ccc(Cl)s1 [5-bromo-N-(4-bromophenyl)-2-(5-chloro-2-thienylsulfonamido)benzamide]	12
